# Results reported in article PMC5152921, “Evolutionary and Functional Diversification of the Vitamin D Receptor-Lithocholic Acid Partnership” (PLoS ONE, 2016).
# How the values were obtained:
# Zebrafish VDRβ [1] = biological target: T1, Zebrafish VDRβ (Danio rerio, UniProt Q1L673); test: Transient transactivation assay (XREM-Luc, HepG2); format: cell-based; design: expressed in transfected cells; host or cells: HepG2; conditions: 100 μM LCA; co-transfected human RXRWT; vs VDR alone
# T1 sequence (Q1L673 1-422): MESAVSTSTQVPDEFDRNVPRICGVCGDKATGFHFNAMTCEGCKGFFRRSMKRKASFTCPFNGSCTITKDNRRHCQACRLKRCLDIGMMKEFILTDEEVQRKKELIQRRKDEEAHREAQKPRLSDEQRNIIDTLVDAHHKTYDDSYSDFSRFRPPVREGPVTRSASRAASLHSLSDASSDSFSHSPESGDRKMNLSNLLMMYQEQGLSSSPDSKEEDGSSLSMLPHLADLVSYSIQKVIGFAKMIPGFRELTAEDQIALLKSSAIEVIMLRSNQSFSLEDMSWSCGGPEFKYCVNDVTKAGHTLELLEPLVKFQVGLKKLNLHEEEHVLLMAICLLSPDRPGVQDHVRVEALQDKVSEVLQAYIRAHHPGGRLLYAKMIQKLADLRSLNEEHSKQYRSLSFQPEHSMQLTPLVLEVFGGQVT
# Procedure: HepG2 cells (American Type Culture Collection #HB-8065) were cultured in T75 flasks with vented caps (Corning Life Sciences, Corning, NY) using Minimum Essential Medium (MEM) with phenol red supplemented with 10% fetal bovine serum, 1 mM sodium pyruvate, and 1X MEM non-essential amino acids. Cells were maintained following standard protocols in a 5% CO2 incubator set at 37°C, and split when 80–90% confluent.
# For the transient transactivation assays, HepG2 cells were seeded in 96-well tissue culture plates at a density of 2.5x10^4 cells per well in complete phenol red-free MEM, and allowed to recover overnight. Transfections were performed the following day using Lipofectamine 2000 (Life Technologies, Grand Island, NY) as described previously. […] LCA-mediated VDR transactivation (fold activation) was calculated as the ratio of the VDR luciferase response relative to the empty vector control. […] VDR response in the absence of coregulators was analyzed using a 1-way ANOVA followed by Dunnett’s multiple comparisons test. To examine the effects of different coregulators on VDR activation, data were analyzed using a 2-way ANOVA followed by Bonferroni’s multiple comparisons test in GraphPad Prism (GraphPad Inc, San Diego, CA).
# Zebrafish VDRβ [2] = biological target: T1, Zebrafish VDRβ; test: Competitive ligand binding assay ([3H]-1,25D3 displacement); design: 89.7 ng/well of full-length pSG5-VDR was co-transfected; expressed in transfected cells; host or cells: COS7; conditions: lysate with VDR and human RXRWT; 4 nM [3H]-1,25D3; 18 hours at 4°C; Cheng-Prusoff; mean ± SEM
# Procedure: Recombinant VDR and human RXRWT lysates were prepared from transfected COS7 cells (American Type Culture Collection #CRL-1651) as described in detail previously. Lysates were diluted 10-fold in ice-cold assay buffer (10 mM Tris HCl, 150 mM KCl, 1 mM EDTA, 0.3 mM ZnCl2, 5 mM DTT, and 1x protease inhibitor cocktail (100 μM AEBSF, 80 nM aprotinin, 5 μM bestatin, 1.5 μM E-64 (for cysteine proteases), 2 μM leupeptin, 1 μM pepstatin A), pH 7.5). […] Reactions were shaken to mix and incubated for 18 hours at 4°C. Bound and free ligand were separated with the addition of 80 μL of ice-cold separation buffer (2.5% (w/v) activated charcoal, 0.5% (w/v) dextran, 100 mM Na2HPO4, 39 mM NaH2PO4, 150 mM NaCl, 15 mM NaN3, 10% gelatin, pH 7.0), and incubated at 4°C for 15 minutes with shaking every 5 minutes. Reactions were centrifuged at 5,000 x g for 5 minutes at 4°C, and 200 μL of the supernatant containing the VDR-bound ligands was removed for scintillation counting.
# Total binding was determined using lysate from cells transfected with VDR, and nonspecific binding was determined using lysate from cells transfected with the empty pSG5 vector. Specific binding was determined by subtracting non-specific binding counts from the total binding counts.
smiles,measurement,setting,value
"C[C@H](CCC(=O)O)[C@H]1CC[C@H]2[C@@H]3CC[C@@H]4C[C@H](O)CC[C@]4(C)[C@H]3CC[C@]12C [LCA, 5β-cholanic acid-3α-ol]",Effect of exogenous human RXRWT on VDR transactivation,Zebrafish VDRβ [1],significantly enhanced transactivation
same,Ki,Zebrafish VDRβ [2],6.7 ± 1.9 µM
